{
  "source": "patent US20230085307A1",
  "about": "“PYRIDAZINONE COMPOUND AND HERBICIDE” (NISSAN CHEMICAL CORPORATION, priority 2019, published 2023)",
  "key": {"[1]": {"test_system": "rice flat sedge", "experiment": "Test Example 3: herbicidal effect by foliage application, Wagner pot (Table 18, symbol E)", "format": "in vivo, rice flat sedge (Cyperus iria)", "conditions": "amount of applied herbicide 320 g/ha", "in_short": "(§1)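 Plants were sown in alluvial soil held under 0.1–0.5 cm standing water and grown 14 days in a greenhouse at 25–30 °C. An emulsifiable formulation, water-diluted to the set dose, was then sprayed onto the foliage, and effects were scored three weeks later using previously defined criteria.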"}, "[2]": {"test_system": "persian speedwell", "experiment": "Test Example 4: herbicidal effect by soil treatment (Table 19, symbol R)", "format": "in vivo, Persian speedwell (Veronica persica)", "conditions": "amount of applied herbicide 320 g/ha", "in_short": "(§2)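 In this soil treatment, the formulated compound reached the seeds only through the soil: seeds were buried about 1.5 cm deep in sterilized diluvial soil, then the diluted emulsion was sprayed over the surface. After three weeks at 25° C. to 30° C. in a greenhouse, effects were graded on criteria from an earlier test.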"}, "[3]": {"test_system": "soybean", "experiment": "Test Example 4: effect on crop by soil treatment (Table 19, symbol d)", "format": "in vivo", "conditions": "amount of applied herbicide 320 g/ha", "source_text": "(§3) [Test Example 4] Herbicidal Effect Test by Soil Treatment\n(§4) Sterilized diluvial soil was placed in a plastic box having a length of 21 cm, a width of 13 cm, and a depth of 7 cm. The seeds of each of southern crabgrass, green foxtail, barnyard grass, wild oat, blackgrass, Italian ryegrass, windgrass, velvetleaf, redroot pigweed, lambsquarters, chickweed, false cleavers, persian speedwell, corn, soybean, rice, wheat, beet, and rapeseed were sowed in a spot-like manner and covered with the soil having a thickness of about 1.5 cm. Subsequently, the emulsion agent of the compound of the present invention prepared according to Formulation Example 2 was diluted with water so as to achieve a predetermined herbicide amount, and the diluted emulsion agent was uniformly applied to the surface of the soil with a small-sized spray. The plastic box was placed in a greenhouse at 25° C. to 30° C. for growth of the plants. Three weeks after the herbicide application, the effect of the herbicide on each plant was evaluated according to the criteria of Test Example 1."}, "[4]": {"test_system": "rapeseed", "experiment": "Test Example 4: effect on crop by soil treatment (Table 19, symbol g)", "format": "in vivo", "conditions": "amount of applied herbicide 320 g/ha", "source_text": "as §3, §4"}, "[5]": {"test_system": "chickweed", "experiment": "Test Example 4: herbicidal effect by soil treatment (Table 19, symbol P)", "format": "in vivo, common chickweed (Stellaria media)", "conditions": "amount of applied herbicide 320 g/ha", "in_short": "as §2"}, "[6]": {"test_system": "windgrass", "experiment": "Test Example 5: herbicidal effect by foliage application, plastic box (Table 20, symbol L)", "format": "in vivo, windgrass (Apera spica-venti)", "conditions": "foliage application, 320 g/ha, evaluated three weeks after application", "in_short": "(§5)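 Plants were sown into sterilized diluvial soil under about 1.5 cm cover and kept in a greenhouse at 25° C. to 30° C. Fourteen days on, foliage received an even spray of the diluted emulsion. Herbicidal or crop effect was judged three weeks afterwards.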"}, "[7]": {"test_system": "blackgrass", "experiment": "Test Example 4: herbicidal effect by soil treatment (Table 19, symbol J)", "format": "in vivo, blackgrass (Alopecurus myosuroides)", "conditions": "amount of applied herbicide 320 g/ha", "in_short": "as §2"}, "[8]": {"test_system": "wheat", "experiment": "Test Example 5: effect on crop by foliage application, plastic box (Table 20, symbol e)", "format": "in vivo", "conditions": "320 g/ha, evaluated three weeks after application", "source_text": "(§6) [Test Example 5] Herbicidal Effect Test by Foliage Application\nas §4, with “Thereafter, the plants were grown in a greenhouse at 25° C. to 30° C. After 14-day growth of the plants,” for “Subsequently,”, “a foliage part” for “the surface of the soil”, “spray.” for “spray. The plastic box was placed in a greenhouse at 25° C. to 30° C. for growth of the plants.”"}, "[9]": {"test_system": "green foxtail", "experiment": "Test Example 4: herbicidal effect by soil treatment (Table 19, symbol G)", "format": "in vivo, green foxtail (Setaria viridis)", "conditions": "amount of applied herbicide 320 g/ha", "in_short": "as §2"}, "[10]": {"test_system": "redroot pigweed", "experiment": "Test Example 4: herbicidal effect by soil treatment (Table 19, symbol N)", "format": "in vivo, redroot pigweed (Amaranthus retroflexus)", "conditions": "amount of applied herbicide 320 g/ha", "in_short": "as §2"}, "[11]": {"test_system": "persian speedwell", "experiment": "Test Example 5: herbicidal effect by foliage application, plastic box (Table 20, symbol R)", "format": "in vivo, Persian speedwell (Veronica persica)", "conditions": "foliage application, 320 g/ha, evaluated three weeks after application", "in_short": "as §5"}, "[12]": {"test_system": "corn", "experiment": "Test Example 5: effect on crop by foliage application, plastic box (Table 20, symbol c)", "format": "in vivo", "conditions": "320 g/ha, evaluated three weeks after application", "source_text": "as §6\nas §4, with “Thereafter, the plants were grown in a greenhouse at 25° C. to 30° C. After 14-day growth of the plants,” for “Subsequently,”, “a foliage part” for “the surface of the soil”, “spray.” for “spray. The plastic box was placed in a greenhouse at 25° C. to 30° C. for growth of the plants.”"}, "[13]": {"test_system": "lambsquarters", "experiment": "Test Example 5: herbicidal effect by foliage application, plastic box (Table 20, symbol O)", "format": "in vivo, lambsquarters (Chenopodium album)", "conditions": "foliage application, 320 g/ha, evaluated three weeks after application", "in_short": "as §5"}, "[14]": {"test_system": "windgrass", "experiment": "Test Example 4: herbicidal effect by soil treatment (Table 19, symbol L)", "format": "in vivo, windgrass (Apera spica-venti)", "conditions": "amount of applied herbicide 320 g/ha", "in_short": "as §2"}, "[15]": {"test_system": "green foxtail", "experiment": "Test Example 5: herbicidal effect by foliage application, plastic box (Table 20, symbol G)", "format": "in vivo, green foxtail (Setaria viridis)", "conditions": "foliage application, 320 g/ha, evaluated three weeks after application", "in_short": "as §5"}, "[16]": {"test_system": "barnyard grass", "experiment": "Test Example 5: herbicidal effect by foliage application, plastic box (Table 20, symbol H)", "format": "in vivo, barnyard grass (Echinochloa crus-galli)", "conditions": "foliage application, 320 g/ha, evaluated three weeks after application", "in_short": "as §5"}, "[17]": {"test_system": "barnyard grass", "experiment": "Test Example 3: herbicidal effect by foliage application, Wagner pot (Table 18, symbol H)", "format": "in vivo, barnyard grass (Echinochloa crus-galli)", "conditions": "amount of applied herbicide 320 g/ha", "in_short": "as §1"}, "[18]": {"test_system": "velvetleaf", "experiment": "Test Example 4: herbicidal effect by soil treatment (Table 19, symbol M)", "format": "in vivo, velvetleaf (Abutilon theophrasti)", "conditions": "amount of applied herbicide 320 g/ha", "in_short": "as §2"}, "[19]": {"test_system": "beet", "experiment": "Test Example 4: effect on crop by soil treatment (Table 19, symbol f)", "format": "in vivo", "conditions": "amount of applied herbicide 320 g/ha", "source_text": "as §3, §4"}},
  "data": [
    {"smiles": "COc1ccccc1-c1sc2ccc(C3CC3)cc2c1-c1c(O)c(C)nn(C)c1=O", "note": "[Compound No. 2-160, 4-(5-cyclopropyl-2-(2-methoxyphenyl)benzo[b]thiophen-3-yl)-5-hydroxy-2,6-dimethylpyridazin-3(2H)-one]", "values": [
      {"measurement": "herbicidal effect on E: rice flat sedge", "setting": "[1]", "value": "3 (Herbicidal rate of 40% or more and less than 70%)"},
      {"measurement": "R: persian speedwell, herbicidal effect rating", "setting": "[2]", "value": "1 (Herbicidal rate of 5% or more and less than 20%)"},
      {"measurement": "d: soybean, effect on crop rating", "setting": "[3]", "value": "0 (Herbicidal rate of 5% or less (almost no effect))"},
      {"measurement": "g: rapeseed, effect on crop rating", "setting": "[4]", "value": "1 (Herbicidal rate of 5% or more and less than 20%)"},
      {"measurement": "P: chickweed, herbicidal effect rating", "setting": "[5]", "value": "1 (Herbicidal rate of 5% or more and less than 20%)"},
      {"measurement": "herbicidal effect on L: windgrass (criteria 0-5)", "setting": "[6]", "value": "5 (Herbicidal rate of 90% or more (almost completely withered))"},
      {"measurement": "J: blackgrass, herbicidal effect rating", "setting": "[7]", "value": "0 (Herbicidal rate of 5% or less (almost no effect))"},
      {"measurement": "effect on crop e: wheat (criteria 0-5)", "setting": "[8]", "value": "1 (Herbicidal rate of 5% or more and less than 20%)"},
      {"measurement": "G: green foxtail, herbicidal effect rating", "setting": "[9]", "value": "0 (Herbicidal rate of 5% or less (almost no effect))"},
      {"measurement": "N: redroot pigweed, herbicidal effect rating", "setting": "[10]", "value": "0 (Herbicidal rate of 5% or less (almost no effect))"},
      {"measurement": "herbicidal effect on R: persian speedwell (criteria 0-5)", "setting": "[11]", "value": "5 (Herbicidal rate of 90% or more (almost completely withered))"},
      {"measurement": "effect on crop c: corn (criteria 0-5)", "setting": "[12]", "value": "0 (Herbicidal rate of 5% or less (almost no effect))"},
      {"measurement": "herbicidal effect on O: lambsquarters (criteria 0-5)", "setting": "[13]", "value": "2 (Herbicidal rate of 20% or more and less than 40%)"},
      {"measurement": "L: windgrass, herbicidal effect rating", "setting": "[14]", "value": "3 (Herbicidal rate of 40% or more and less than 70%)"},
      {"measurement": "herbicidal effect on G: green foxtail (criteria 0-5)", "setting": "[15]", "value": "4 (Herbicidal rate of 70% or more and less than 90%)"},
      {"measurement": "herbicidal effect on H: barnyard grass (criteria 0-5)", "setting": "[16]", "value": "4 (Herbicidal rate of 70% or more and less than 90%)"},
      {"measurement": "herbicidal effect on H: barnyard grass", "setting": "[17]", "value": "4 (Herbicidal rate of 70% or more and less than 90%)"},
      {"measurement": "M: velvetleaf, herbicidal effect rating", "setting": "[18]", "value": "0 (Herbicidal rate of 5% or less (almost no effect))"},
      {"measurement": "f: beet, effect on crop rating", "setting": "[19]", "value": "0 (Herbicidal rate of 5% or less (almost no effect))"}
    ]}
  ]
}
